According to ChEMBL document CHEMBL4507281, “Data for DCP probe BI-4394” (2021):

Columns and labels:
[1] = molecular target: Non-receptor tyrosine-protein kinase TYK2 (Homo sapiens) (UniProt P29597); settings: Compound concentration 100.0 nM
[2] = molecular target: Mitogen-activated protein kinase kinase kinase kinase 4 (Homo sapiens) (UniProt O95819); settings: Compound concentration 100.0 nM
[3] = molecular target: Serine/threonine-protein kinase PRP4 homolog (Homo sapiens) (UniProt Q13523); settings: Compound concentration 100.0 nM
[4] = molecular target: Ephrin type-A receptor 2 (Homo sapiens) (UniProt P29317); settings: Compound concentration 10.0 uM
[5] = molecular target: Cyclin-dependent kinase-like 2 (Homo sapiens) (UniProt Q92772); settings: Compound concentration 100.0 nM
[6] = molecular target: Tyrosine-protein kinase Fgr (Homo sapiens) (UniProt P09769); settings: Compound concentration 100.0 nM
[7] = molecular target: Serine/threonine-protein kinase MARK2 (Homo sapiens) (UniProt Q7KZI7); settings: Compound concentration 10.0 uM
[8] = molecular target: Serine/threonine-protein kinase Nek6 (Homo sapiens) (UniProt Q9HC98); settings: Compound concentration 100.0 nM
[9] = molecular target: BMP-2-inducible protein kinase (Homo sapiens) (UniProt Q9NSY1); settings: Compound concentration 100.0 nM
[10] = molecular target: T1, Interleukin-1 receptor-associated kinase 4 (Homo sapiens) (UniProt Q9NWZ3); settings: Compound concentration 100.0 nM
T1 sequence (whole entry): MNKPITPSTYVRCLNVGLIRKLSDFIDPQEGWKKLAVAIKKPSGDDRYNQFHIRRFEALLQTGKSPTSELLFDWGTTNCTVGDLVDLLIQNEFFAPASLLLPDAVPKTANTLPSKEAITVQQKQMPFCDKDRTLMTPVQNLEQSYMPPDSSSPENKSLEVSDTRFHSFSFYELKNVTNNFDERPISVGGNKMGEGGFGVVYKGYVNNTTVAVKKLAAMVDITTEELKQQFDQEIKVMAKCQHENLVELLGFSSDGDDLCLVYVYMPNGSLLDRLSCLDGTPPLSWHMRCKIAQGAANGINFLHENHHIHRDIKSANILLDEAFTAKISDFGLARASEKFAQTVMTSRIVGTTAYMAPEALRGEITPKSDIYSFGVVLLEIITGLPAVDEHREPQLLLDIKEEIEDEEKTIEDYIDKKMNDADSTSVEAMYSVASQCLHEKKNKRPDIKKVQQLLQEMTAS

[11] = molecular target: Ephrin type-A receptor 2 (Homo sapiens) (UniProt P29317); settings: Compound concentration 100.0 nM
[12] = molecular target: Activin receptor type-1 (Homo sapiens) (UniProt Q04771); settings: Compound concentration 100.0 nM
[13] = tested on: eIF-2-alpha kinase GCN2 (Homo sapiens), Q9P2K8 [S808G]; settings: Compound concentration 100.0 nM
[14] = molecular target: Cyclin-dependent kinase 4 (Homo sapiens) (UniProt P11802); settings: Compound concentration 100.0 nM
[15] = molecular target: 5-hydroxytryptamine receptor 2A (Homo sapiens) (UniProt P28223); settings: Compound concentration 10.0 uM
[16] = tested on: Phosphatidylinositol 4,5-bisphosphate 3-kinase catalytic subunit alpha isoform (Homo sapiens), P42336 [H1047L]; settings: Compound concentration 100.0 nM
[17] = molecular target: Tyrosine-protein kinase BTK (Homo sapiens) (UniProt Q06187); settings: Compound concentration 10.0 uM
[18] = molecular target: Interleukin-1 receptor-associated kinase 3 (Homo sapiens) (UniProt Q9Y616); settings: Compound concentration 100.0 nM
[19] = molecular target: Myosin light chain kinase family member 4 (Homo sapiens) (UniProt Q86YV6); settings: Compound concentration 100.0 nM
[20] = molecular target: Tyrosine-protein kinase TXK (Homo sapiens) (UniProt P42681); settings: Compound concentration 100.0 nM
[21] = molecular target: Serine/threonine-protein kinase MARK1 (Homo sapiens) (UniProt Q9P0L2); settings: Compound concentration 100.0 nM
[22] = molecular target: Serine/threonine-protein kinase ICK (Homo sapiens) (UniProt Q9UPZ9); settings: Compound concentration 100.0 nM
[23] = tested on: Tyrosine-protein kinase ABL1 (Homo sapiens), P00519 [H396P]; settings: Compound concentration 100.0 nM
[24] = molecular target: Tyrosine-protein kinase ABL1 (Homo sapiens) (UniProt P00519); settings: Compound concentration 10.0 uM
[25] = molecular target: Macrophage colony-stimulating factor 1 receptor (Homo sapiens) (UniProt P07333); settings: Compound concentration 100.0 nM
[26] = molecular target: 5'-AMP-activated protein kinase catalytic subunit alpha-2 (Homo sapiens) (UniProt P54646); settings: Compound concentration 100.0 nM
[27] = molecular target: Vascular endothelial growth factor receptor 2 (Homo sapiens) (UniProt P35968); settings: Compound concentration 10.0 uM
[28] = molecular target: Casein kinase II subunit alpha' (Homo sapiens) (UniProt P19784); settings: Compound concentration 100.0 nM
[29] = molecular target: Serine/threonine-protein kinase 38-like (Homo sapiens) (UniProt Q9Y2H1); settings: Compound concentration 100.0 nM
[30] = molecular target: Activin receptor type-2A (Homo sapiens) (UniProt P27037); settings: Compound concentration 100.0 nM
[31] = molecular target: Dual specificity mitogen-activated protein kinase kinase 7 (Homo sapiens) (UniProt O14733); settings: Compound concentration 100.0 nM
[32] = molecular target: AP2-associated protein kinase 1 (Homo sapiens) (UniProt Q2M2I8); settings: Compound concentration 100.0 nM
[33] = molecular target: Citron Rho-interacting kinase (Homo sapiens) (UniProt O14578); settings: Compound concentration 100.0 nM
[34] = molecular target: Cyclin-dependent kinase 8 (Homo sapiens) (UniProt P49336); settings: Compound concentration 100.0 nM

Ephrin type-A receptor 2 (Homo sapiens), sequence (P29317 whole entry): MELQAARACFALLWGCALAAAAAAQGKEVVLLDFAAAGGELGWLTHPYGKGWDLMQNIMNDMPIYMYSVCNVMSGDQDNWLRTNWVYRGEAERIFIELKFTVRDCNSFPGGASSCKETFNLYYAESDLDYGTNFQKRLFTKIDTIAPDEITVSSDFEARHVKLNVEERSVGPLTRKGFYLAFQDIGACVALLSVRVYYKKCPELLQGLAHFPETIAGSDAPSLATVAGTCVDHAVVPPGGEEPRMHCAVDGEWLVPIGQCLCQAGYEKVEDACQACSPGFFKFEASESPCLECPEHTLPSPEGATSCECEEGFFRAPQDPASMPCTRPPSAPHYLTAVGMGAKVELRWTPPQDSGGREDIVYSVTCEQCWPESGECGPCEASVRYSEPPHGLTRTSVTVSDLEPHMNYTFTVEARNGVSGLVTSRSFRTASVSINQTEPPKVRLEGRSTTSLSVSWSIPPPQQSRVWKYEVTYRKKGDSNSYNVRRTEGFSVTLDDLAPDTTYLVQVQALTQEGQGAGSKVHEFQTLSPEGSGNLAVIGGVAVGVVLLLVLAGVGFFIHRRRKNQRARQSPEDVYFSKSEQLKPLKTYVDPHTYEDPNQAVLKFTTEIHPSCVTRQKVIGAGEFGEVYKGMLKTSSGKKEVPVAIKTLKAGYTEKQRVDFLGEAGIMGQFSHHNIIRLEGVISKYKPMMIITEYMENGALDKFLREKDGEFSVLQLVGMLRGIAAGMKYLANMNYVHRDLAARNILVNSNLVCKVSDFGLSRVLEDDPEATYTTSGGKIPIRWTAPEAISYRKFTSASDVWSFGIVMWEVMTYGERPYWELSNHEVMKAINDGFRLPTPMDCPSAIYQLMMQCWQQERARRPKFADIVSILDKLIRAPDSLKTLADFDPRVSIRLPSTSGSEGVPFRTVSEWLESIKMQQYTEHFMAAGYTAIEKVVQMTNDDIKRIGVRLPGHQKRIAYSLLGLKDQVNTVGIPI
AP2-associated protein kinase 1 (Homo sapiens), sequence (Q2M2I8 whole entry, looked up): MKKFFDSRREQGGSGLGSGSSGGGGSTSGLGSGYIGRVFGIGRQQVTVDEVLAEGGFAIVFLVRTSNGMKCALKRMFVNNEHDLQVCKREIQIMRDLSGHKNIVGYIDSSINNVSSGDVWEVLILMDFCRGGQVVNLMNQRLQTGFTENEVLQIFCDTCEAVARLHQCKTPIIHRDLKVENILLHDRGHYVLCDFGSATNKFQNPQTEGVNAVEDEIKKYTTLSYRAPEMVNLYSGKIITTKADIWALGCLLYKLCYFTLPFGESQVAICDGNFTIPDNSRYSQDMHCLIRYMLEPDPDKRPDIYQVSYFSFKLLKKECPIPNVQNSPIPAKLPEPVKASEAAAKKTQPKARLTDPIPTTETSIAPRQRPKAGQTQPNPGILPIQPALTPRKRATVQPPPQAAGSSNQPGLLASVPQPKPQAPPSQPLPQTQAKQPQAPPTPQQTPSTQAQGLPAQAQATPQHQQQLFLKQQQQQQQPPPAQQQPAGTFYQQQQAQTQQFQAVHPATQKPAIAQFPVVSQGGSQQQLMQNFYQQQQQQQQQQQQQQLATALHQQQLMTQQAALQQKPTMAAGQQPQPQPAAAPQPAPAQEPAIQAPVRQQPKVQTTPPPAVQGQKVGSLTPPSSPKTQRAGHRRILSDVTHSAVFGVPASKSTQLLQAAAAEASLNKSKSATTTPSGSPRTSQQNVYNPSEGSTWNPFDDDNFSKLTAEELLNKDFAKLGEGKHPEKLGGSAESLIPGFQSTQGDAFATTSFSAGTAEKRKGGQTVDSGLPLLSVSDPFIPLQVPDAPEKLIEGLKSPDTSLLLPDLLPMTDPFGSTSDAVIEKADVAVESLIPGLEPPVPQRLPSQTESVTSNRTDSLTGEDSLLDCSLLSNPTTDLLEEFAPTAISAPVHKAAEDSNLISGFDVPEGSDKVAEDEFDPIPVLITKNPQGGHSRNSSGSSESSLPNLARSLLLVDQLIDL
Myosin light chain kinase family member 4 (Homo sapiens), sequence (Q86YV6 whole entry): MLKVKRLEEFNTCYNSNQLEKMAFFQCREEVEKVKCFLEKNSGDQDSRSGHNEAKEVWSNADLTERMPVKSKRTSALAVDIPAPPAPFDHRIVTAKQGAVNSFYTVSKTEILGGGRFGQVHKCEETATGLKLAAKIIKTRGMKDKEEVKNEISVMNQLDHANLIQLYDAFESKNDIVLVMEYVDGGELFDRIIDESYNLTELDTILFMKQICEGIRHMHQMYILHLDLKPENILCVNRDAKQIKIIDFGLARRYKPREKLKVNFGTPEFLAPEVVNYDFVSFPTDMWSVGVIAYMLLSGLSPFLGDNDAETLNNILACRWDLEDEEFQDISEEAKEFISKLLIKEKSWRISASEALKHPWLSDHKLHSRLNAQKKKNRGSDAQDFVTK
Activin receptor type-2A (Homo sapiens), sequence (P27037 whole entry): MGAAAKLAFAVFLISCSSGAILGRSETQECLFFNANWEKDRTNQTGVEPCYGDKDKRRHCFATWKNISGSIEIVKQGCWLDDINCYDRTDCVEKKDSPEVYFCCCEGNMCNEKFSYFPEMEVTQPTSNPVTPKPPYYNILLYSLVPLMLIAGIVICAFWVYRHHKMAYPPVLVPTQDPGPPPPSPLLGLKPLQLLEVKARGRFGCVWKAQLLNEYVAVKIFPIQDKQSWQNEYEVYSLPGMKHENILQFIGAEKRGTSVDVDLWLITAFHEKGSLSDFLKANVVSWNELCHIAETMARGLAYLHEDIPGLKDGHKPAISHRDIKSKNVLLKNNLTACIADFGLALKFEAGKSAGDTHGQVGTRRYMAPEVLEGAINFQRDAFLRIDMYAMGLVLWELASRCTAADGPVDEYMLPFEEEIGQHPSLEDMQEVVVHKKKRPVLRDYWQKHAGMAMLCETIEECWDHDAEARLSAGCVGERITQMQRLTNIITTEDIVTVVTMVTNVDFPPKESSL
Citron Rho-interacting kinase (Homo sapiens), sequence (O14578 whole entry): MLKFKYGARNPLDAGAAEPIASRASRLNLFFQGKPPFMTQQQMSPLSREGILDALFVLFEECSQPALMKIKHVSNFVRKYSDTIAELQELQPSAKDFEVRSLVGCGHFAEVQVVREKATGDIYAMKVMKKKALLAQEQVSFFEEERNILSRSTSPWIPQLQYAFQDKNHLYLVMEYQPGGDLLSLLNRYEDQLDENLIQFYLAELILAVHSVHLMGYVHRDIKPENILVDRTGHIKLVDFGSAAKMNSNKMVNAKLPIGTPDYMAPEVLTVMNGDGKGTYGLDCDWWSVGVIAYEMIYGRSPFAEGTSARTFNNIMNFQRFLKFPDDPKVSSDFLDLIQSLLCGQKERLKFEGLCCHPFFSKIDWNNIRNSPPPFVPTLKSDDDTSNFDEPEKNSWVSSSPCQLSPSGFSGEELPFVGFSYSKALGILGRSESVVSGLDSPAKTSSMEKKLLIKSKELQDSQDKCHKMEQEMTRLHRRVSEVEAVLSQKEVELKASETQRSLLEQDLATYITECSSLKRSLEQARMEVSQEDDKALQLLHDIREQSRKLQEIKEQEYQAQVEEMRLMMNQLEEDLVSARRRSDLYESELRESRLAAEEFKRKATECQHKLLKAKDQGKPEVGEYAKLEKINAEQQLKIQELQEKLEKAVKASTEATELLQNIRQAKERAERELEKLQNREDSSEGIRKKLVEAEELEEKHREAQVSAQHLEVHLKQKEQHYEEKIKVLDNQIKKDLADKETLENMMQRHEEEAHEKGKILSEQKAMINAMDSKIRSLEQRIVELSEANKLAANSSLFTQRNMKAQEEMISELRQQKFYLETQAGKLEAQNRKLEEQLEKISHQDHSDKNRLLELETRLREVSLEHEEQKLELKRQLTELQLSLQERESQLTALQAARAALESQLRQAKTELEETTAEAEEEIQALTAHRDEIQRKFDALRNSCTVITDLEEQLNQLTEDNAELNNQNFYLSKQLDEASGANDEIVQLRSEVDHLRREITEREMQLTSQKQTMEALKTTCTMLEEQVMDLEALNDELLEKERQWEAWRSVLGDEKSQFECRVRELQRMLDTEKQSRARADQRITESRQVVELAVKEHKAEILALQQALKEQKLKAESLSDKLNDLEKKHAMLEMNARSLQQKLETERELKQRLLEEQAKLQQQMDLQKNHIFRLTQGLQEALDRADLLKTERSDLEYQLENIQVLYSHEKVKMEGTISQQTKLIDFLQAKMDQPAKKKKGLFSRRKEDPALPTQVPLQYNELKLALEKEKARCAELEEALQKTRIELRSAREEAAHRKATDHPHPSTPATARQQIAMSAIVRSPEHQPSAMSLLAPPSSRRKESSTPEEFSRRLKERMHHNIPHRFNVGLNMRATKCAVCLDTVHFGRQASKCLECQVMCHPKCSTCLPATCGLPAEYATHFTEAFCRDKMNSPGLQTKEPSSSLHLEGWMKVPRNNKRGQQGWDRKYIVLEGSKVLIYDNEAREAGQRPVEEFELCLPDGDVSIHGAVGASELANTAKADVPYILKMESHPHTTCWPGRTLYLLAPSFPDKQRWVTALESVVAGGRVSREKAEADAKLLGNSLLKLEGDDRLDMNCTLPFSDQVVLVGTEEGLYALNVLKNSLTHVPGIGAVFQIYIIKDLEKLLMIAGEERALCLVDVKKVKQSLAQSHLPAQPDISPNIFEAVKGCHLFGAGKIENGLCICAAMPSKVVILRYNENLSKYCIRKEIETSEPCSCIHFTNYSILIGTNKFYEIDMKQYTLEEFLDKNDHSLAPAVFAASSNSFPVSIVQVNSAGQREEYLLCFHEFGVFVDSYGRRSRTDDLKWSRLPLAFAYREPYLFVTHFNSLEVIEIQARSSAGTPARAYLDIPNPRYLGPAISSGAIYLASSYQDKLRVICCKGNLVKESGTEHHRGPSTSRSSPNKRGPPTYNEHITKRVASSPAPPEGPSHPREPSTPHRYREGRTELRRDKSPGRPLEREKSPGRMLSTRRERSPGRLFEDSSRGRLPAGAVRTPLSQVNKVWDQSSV

| SMILES | residual activity [1] [%] | residual activity [2] [%] | residual activity [3] [%] | residual activity [5] [%] | residual activity [6] [%] | residual activity [8] [%] | residual activity [9] [%] | residual activity [10] [%] | residual activity [11] [%] | residual activity [12] [%] | residual activity [13] [%] | residual activity [14] [%] | inhibition [15] [%] | residual activity [16] [%] | residual activity [18] [%] | residual activity [19] [%] | residual activity [20] [%] | residual activity [21] [%] | residual activity [22] [%] | residual activity [23] [%] | other results |
| --- | --- | --- | --- | --- | --- | --- | --- | --- | --- | --- | --- | --- | --- | --- | --- | --- | --- | --- | --- | --- | --- |
| CCOC(=O)c1cc2cc(-c3cc(C(=O)NCc4ccc(C(=O)O)cc4)nn3C)ccc2[nH]1 [BI 4394] | 90 | 95 | 89 | 88 | 94 | 95 | 100 | 91 | 100 | 84 | 100 | 82 | 19.1 | 100 | 100 | 100 | 90 | 76 | 85 | 85 | residual activity [4]: 85%; residual activity [7]: 107%; residual activity [17]: 68%; residual activity [24]: 48%; residual activity [25]: 100%; residual activity [26]: 88%; residual activity [27]: 17%; residual activity [28]: 87%; residual activity [29]: 72%; residual activity [30]: 59%; residual activity [31]: 97%; residual activity [32]: 100%; residual activity [33]: 100%; residual activity [34]: 62% |
| Cn1nc(C(=O)NCc2ccc(C(=O)O)cc2)cc1-c1ccc2[nH]ccc2c1 [BI 4395] | 82 | 92 | 100 | 78 | 87 | 91 | 82 | 71 | 95 | 99 | 94 | 84 | 23.6 | 100 | 83 | 76 | 90 | 100 | 72 | 84 | residual activity [25]: 100%; residual activity [26]: 91%; residual activity [28]: 100%; residual activity [29]: 99%; residual activity [30]: 98%; residual activity [31]: 95%; residual activity [32]: 90%; residual activity [33]: 59%; residual activity [34]: 100% |
